# Measured values reported in PubChem BioAssay AID2060498 (Molecular Pharmacology Branch, DTP, NCI, 2025).
# System: 171881-019-R-J1-PDC tumor spheroids, viability
# Assay: Anticancer human tumor 171881-019-R-J1-PDC patient-derived invasive breast carcinoma cell line growth inhibition [GQUAD]
# Conditions: spheroids with HUVEC and MSC; for IC50: curve of first compound; for viability, T/C: stronger effect = lower value
# Procedure, shortened: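 Tumor cells were grown as complex spheroids with HUVEC endothelial cells and mesenchymal stem cells as stroma. G-quadruplex stabilizers were combined with targeted agents over half-log dilutions from near the clinical Cmax, or from 10 microM.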
# [1] = second compound 0.0316 µM, first compound 0.0316 µM
# [2] = second compound 0.0316 µM, first compound 0.1 µM
# [3] = second compound 0.0316 µM, first compound 0.316 µM
# [4] = second compound 0.0316 µM, first compound 1 µM
# [5] = second compound 0.0316 µM, first compound 3.16 µM
# [6] = second compound 0.0316 µM, first compound 10 µM
# [7] = second compound 0.1 µM, first compound 0.0316 µM
# [8] = second compound 0.1 µM, first compound 0.1 µM
# [9] = second compound 0.1 µM, first compound 0.316 µM
# [10] = second compound 0.1 µM, first compound 1 µM
# [11] = second compound 0.1 µM, first compound 3.16 µM
# [12] = second compound 0.1 µM, first compound 10 µM
# [13] = second compound 0.316 µM, first compound 0.0316 µM
# [14] = second compound 0.316 µM, first compound 0.1 µM
# [15] = second compound 0.316 µM, first compound 0.316 µM
# [16] = second compound 0.316 µM, first compound 1 µM
# [17] = second compound 0.316 µM, first compound 3.16 µM
# [18] = second compound 0.316 µM, first compound 10 µM
# [19] = second compound 1 µM, first compound 0.0316 µM
# [20] = second compound 1 µM, first compound 0.1 µM
# [21] = second compound 1 µM, first compound 0.316 µM
# [22] = second compound 1 µM, first compound 1 µM
# [23] = second compound 1 µM, first compound 3.16 µM
# [24] = second compound 1 µM, first compound 10 µM
# [25] = second compound 3.16 µM, first compound 0.0316 µM
# [26] = second compound 3.16 µM, first compound 0.1 µM
# [27] = second compound 3.16 µM, first compound 0.316 µM
# [28] = second compound 3.16 µM, first compound 1 µM
# [29] = second compound 3.16 µM, first compound 3.16 µM
# [30] = second compound 3.16 µM, first compound 10 µM
# [31] = second compound 10 µM, first compound 0.0316 µM
# [32] = second compound 10 µM, first compound 0.1 µM
# [33] = second compound 10 µM, first compound 0.316 µM
# [34] = second compound 10 µM, first compound 1 µM
# [35] = second compound 10 µM, first compound 3.16 µM
# [36] = second compound 10 µM, first compound 10 µM
# 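Also: spheroids exposed to compounds for 7 days.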
# 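For viability, T/C in this document: 100% = DMSO vehicle control viability.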
smiles,measurement,setting,value
COc1cc(C2c3cc4c(cc3C(OC3OC5COC(C)OC5C(O)C3O)C3COC(=O)C23)OCO4)cc(OC)c1O (stereo unspecified) + CN(C)c1ccc(Nc2c3ccc(NC(=O)CCN4CCCC4)cc3nc3cc(NC(=O)CCN4CCCC4)ccc23)cc1,IC50,second compound 0.0316 µM,4590 nM
same,IC50,second compound 0.1 µM,3500 nM
same,IC50,second compound 0.316 µM,2630 nM
same,IC50,second compound 1 µM,< 31.6 nM
same,IC50,second compound 3.16 µM,< 31.6 nM
same,IC50,second compound 10 µM,< 31.6 nM
same,"viability, T/C",[1],114%
same,"viability, T/C",[2],103%
same,"viability, T/C",[3],94.9%
same,"viability, T/C",[4],79%
same,"viability, T/C",[5],51.7%
same,"viability, T/C",[6],41.2%
same,"viability, T/C",[7],106%
same,"viability, T/C",[8],108%
same,"viability, T/C",[9],88.9%
same,"viability, T/C",[10],76%
same,"viability, T/C",[11],49.8%
same,"viability, T/C",[12],37.9%
same,"viability, T/C",[13],86.4%
same,"viability, T/C",[14],87.5%
same,"viability, T/C",[15],69.2%
same,"viability, T/C",[16],56.5%
same,"viability, T/C",[17],54.4%
same,"viability, T/C",[18],30.3%
same,"viability, T/C",[19],25.3%
same,"viability, T/C",[20],15.9%
same,"viability, T/C",[21],17.2%
same,"viability, T/C",[22],11.2%
same,"viability, T/C",[23],10.6%
same,"viability, T/C",[24],13.6%
same,"viability, T/C",[25],1.86%
same,"viability, T/C",[26],2.35%
same,"viability, T/C",[27],2.46%
same,"viability, T/C",[28],1.99%
same,"viability, T/C",[29],2.23%
same,"viability, T/C",[30],1.76%
same,"viability, T/C",[31],0.27%
same,"viability, T/C",[32],0.23%
same,"viability, T/C",[33],0.79%
same,"viability, T/C",[34],0.49%
same,"viability, T/C",[35],0.45%
same,"viability, T/C",[36],0.34%
Nc1ccn(C2OC(CO)C(O)C2(F)F)c(=O)n1 (stereo unspecified) + CN(C)c1ccc(Nc2c3ccc(NC(=O)CCN4CCCC4)cc3nc3cc(NC(=O)CCN4CCCC4)ccc23)cc1,IC50,second compound 0.0316 µM,< 31.6 nM
same,IC50,second compound 0.1 µM,< 31.6 nM
same,IC50,second compound 0.316 µM,< 31.6 nM
same,IC50,second compound 1 µM,< 31.6 nM
same,IC50,second compound 3.16 µM,< 31.6 nM
same,IC50,second compound 10 µM,< 31.6 nM
same,"viability, T/C",[1],35.4%
same,"viability, T/C",[2],35.6%
same,"viability, T/C",[3],44.6%
same,"viability, T/C",[4],51%
same,"viability, T/C",[5],45.9%
same,"viability, T/C",[6],47.7%
same,"viability, T/C",[7],33.7%
same,"viability, T/C",[8],38%
same,"viability, T/C",[9],46.6%
same,"viability, T/C",[10],53%
same,"viability, T/C",[11],45.6%
same,"viability, T/C",[12],46%
same,"viability, T/C",[13],33%
same,"viability, T/C",[14],36%
same,"viability, T/C",[15],39.9%
same,"viability, T/C",[16],38.5%
same,"viability, T/C",[17],47.2%
same,"viability, T/C",[18],38.4%
same,"viability, T/C",[19],12.5%
same,"viability, T/C",[20],8.63%
same,"viability, T/C",[21],13.7%
same,"viability, T/C",[22],11.8%
same,"viability, T/C",[23],15%
same,"viability, T/C",[24],16.6%
same,"viability, T/C",[25],2.29%
same,"viability, T/C",[26],1.62%
same,"viability, T/C",[27],2.47%
same,"viability, T/C",[28],1.2%
same,"viability, T/C",[29],2.41%
same,"viability, T/C",[30],2.49%
same,"viability, T/C",[31],0.27%
same,"viability, T/C",[32],0.9%
same,"viability, T/C",[33],0.82%
same,"viability, T/C",[34],0.47%
same,"viability, T/C",[35],1.36%
same,"viability, T/C",[36],0.37%
O=c1[nH]cc(F)c(=O)[nH]1 + CN(C)c1ccc(Nc2c3ccc(NC(=O)CCN4CCCC4)cc3nc3cc(NC(=O)CCN4CCCC4)ccc23)cc1,IC50,second compound 0.0316 µM,> 10000 nM
same,IC50,second compound 0.1 µM,> 10000 nM
same,IC50,second compound 0.316 µM,9940 nM
same,IC50,second compound 1 µM,< 31.6 nM
same,IC50,second compound 3.16 µM,< 31.6 nM
same,IC50,second compound 10 µM,< 31.6 nM
same,"viability, T/C",[1],84%
same,"viability, T/C",[2],79.3%
same,"viability, T/C",[3],75.2%
same,"viability, T/C",[4],69.5%
same,"viability, T/C",[5],62.9%
same,"viability, T/C",[6],63.9%
same,"viability, T/C",[7],79.7%
same,"viability, T/C",[8],72.9%
same,"viability, T/C",[9],73.4%
same,"viability, T/C",[10],69.1%
same,"viability, T/C",[11],65.7%
same,"viability, T/C",[12],61.6%
same,"viability, T/C",[13],70.5%
same,"viability, T/C",[14],69.4%
same,"viability, T/C",[15],69.5%
same,"viability, T/C",[16],55.4%
same,"viability, T/C",[17],58%
same,"viability, T/C",[18],49.9%
same,"viability, T/C",[19],14.9%
same,"viability, T/C",[20],11.1%
same,"viability, T/C",[21],17%
same,"viability, T/C",[22],12.6%
same,"viability, T/C",[23],13.4%
same,"viability, T/C",[24],15.8%
same,"viability, T/C",[25],2.15%
same,"viability, T/C",[26],1.36%
same,"viability, T/C",[27],2.04%
same,"viability, T/C",[28],2.2%
same,"viability, T/C",[29],2.62%
same,"viability, T/C",[30],2.05%
same,"viability, T/C",[31],0.33%
same,"viability, T/C",[32],0.41%
same,"viability, T/C",[33],0.8%
same,"viability, T/C",[34],0.38%
same,"viability, T/C",[35],0.5%
same,"viability, T/C",[36],0.29%
